Experimental data from patent publication US10294202B2, “Pyrrolidinones as herbicides” (FMC Corporation, priority 2013, dated 2019).

Assays:
barnyardgrass = assay: Test C flooded paddy test; format: in vivo, Echinochloa crus-galli; settings: Flood
In short: (§1)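 Plants at the 2-leaf stage in pots flooded to 3 cm were treated by applying compound directly to the paddy water, with depth held throughout. After 13 to 15 days in a greenhouse, response was rated visually against controls on a 0 (no effect) to 100 (complete control) scale.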

ducksalad = assay: Test C flooded paddy test; format: in vivo, Heteranthera limosa; settings: Flood
In short: as §1

galium = assay: Test A postemergence herbicide test; format: in vivo, Galium aparine
In short: (§2)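 Visual injury rating, 0 (no effect) to 100 (complete control), versus untreated controls ~10 days after treatment. Postemergence spray applied at one- to two-leaf stage, plants 2–10 cm tall, potted in loam soil/sand. Greenhouse-held.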

blackgrass = assay: Test A postemergence herbicide test; format: in vivo, Alopecurus myosuroides
In short: as §2

ragweed = assay: Test A pre-/postemergence herbicide test; format: in vivo, Ambrosia elatior
In short: (§3)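 Directed soil spray to seeded pots (preemergence) or spray onto one- to two-leaf seedlings 2–10 cm tall (postemergence); loam/sand substrate throughout. Evaluated visually after about 10 days against untreated plants, 0 = no effect, 100 = complete control.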

crabgrass, large = assay: Test A pre-/postemergence herbicide test; format: in vivo, Digitaria sanguinalis; settings: for Crabgrass, Large plant response rating: visual rating on 0 to 100 scale (0 no effect, 100 complete control)
In short: as §3

velvetleaf = assay: Test A pre-/postemergence herbicide test; format: in vivo, Abutilon theophrasti; settings: for Velvetleaf plant response rating: visual rating on 0 to 100 scale (0 no effect, 100 complete control)
In short: as §3

morningglory = assay: Test A pre-/postemergence herbicide test; format: in vivo, Ipomoea spp.; settings: for Morningglory plant response rating: visual rating on 0 to 100 scale (0 no effect, 100 complete control)
In short: as §3

[1] = 31 g ai/ha, scale of 0 to 100 where 0 is no effect and 100 is complete control, 13 to 15 days
[2] = 62 g ai/ha, scale of 0 to 100 where 0 is no effect and 100 is complete control, 13 to 15 days
[3] = 125 g ai/ha, scale of 0 to 100 where 0 is no effect and 100 is complete control, 13 to 15 days
[4] = 250 g ai/ha, scale of 0 to 100 where 0 is no effect and 100 is complete control, 13 to 15 days
[5] = 125 g ai/ha, visual rating on 0 to 100 scale (0 no effect, 100 complete control), approx. 10 days
[6] = 500 g ai/ha, 0 to 100 scale (0 no effect, 100 complete control)
[7] = Postemergence, 125 g ai/ha, visual rating on 0 to 100 scale (0 no effect, 100 complete control), approx. 10 days
[8] = Postemergence, 500 g ai/ha, 0 to 100 scale (0 no effect, 100 complete control)
[9] = Preemergence, 125 g ai/ha, 0 to 100 scale where 0 is no effect and 100 is complete control
[10] = Preemergence, 500 g ai/ha, visual rating on 0 to 100 scale (0 no effect, 100 complete control)
[11] = 125 g ai/ha, visual rating, 0 to 100 scale, 0 no effect, 100 complete control, approximately 10 days, preemergence
[12] = Postemergence, 125 g ai/ha, 0 to 100 scale, 0 is no effect, 100 is complete control
[13] = preemergence, 500 g ai/ha, 0 to 100 scale, 0 is no effect and 100 is complete control
[14] = Postemergence, 125 g ai/ha, 0 to 100 scale, 0 no effect, 100 complete control
[15] = preemergence, 500 g ai/ha, 0 to 100 scale
[16] = 125 g ai/ha, 0 to 100 scale, 0 is no effect, 100 is complete control

Row | SMILES | Plant response rating, Barnyardgrass (barnyardgrass; [1]) | Plant response rating, Barnyardgrass (barnyardgrass; [2]) | Plant response rating, Barnyardgrass (barnyardgrass; [3]) | Plant response rating, Barnyardgrass (barnyardgrass; [4]) | Plant response rating, Ducksalad (ducksalad; [1]) | Plant response rating, Ducksalad (ducksalad; [2]) | Plant response rating, Ducksalad (ducksalad; [3]) | Plant response rating, Ducksalad (ducksalad; [4]) | Plant response rating, Galium (galium; [5]) | Plant response rating, Galium (galium; [6]) | Plant response rating, Blackgrass (blackgrass; [5]) | Plant response rating, Blackgrass (blackgrass; [6]) | Plant response rating, Ragweed (ragweed; [7]) | Plant response rating, Ragweed (ragweed; [8]) | Plant response rating, Ragweed (ragweed; [9]) | Plant response rating, Barnyardgrass (barnyardgrass; 250 g ai/ha, scale 0 to 100) | Plant response rating, Ducksalad (ducksalad; 250 g ai/ha, scale 0 to 100) | Plant response rating, Crabgrass, Large (crabgrass, large; [8]) | Plant response rating, Velvetleaf (velvetleaf; [8]) | Plant response rating, Morningglory (morningglory; [8]) | further results
1 | O=C1NCC(c2cccc(OC(F)F)c2)C1C(=O)Nc1cccc(F)c1F (stereo not shown) [Compound 324] | 0 | 0 | 60 | 70 | 40 | 70 | 95 | 100 | 40 | 60 | 60 | 70 | 20 | 50 | 30 |  |  |  |  |  | Ragweed plant response rating (ragweed; [10]): 60
2 | O=C1NCC(c2cccc(C(F)(F)F)c2)C1C(=O)Nc1ccccc1Cl (racemic) [Compound 189] |  |  | 10 |  |  |  | 75 |  |  |  |  |  |  |  |  | 30 | 80 |  |  |  | Plant response rating, Crabgrass, Large (crabgrass, large; [11]): 90; Plant response rating, Crabgrass, Large (crabgrass, large; [12]): 60; Crabgrass, Large plant response rating (0 to 100 scale, 0 is no effect, 100 is complete control) (crabgrass, large; Postemergence, 500 g ai/ha): 80; Plant response rating, Crabgrass, Large (crabgrass, large; [13]): 90; Plant response rating, Barnyardgrass (barnyardgrass; 500 g ai/ha, scale 0 to 100): 50; Plant response rating, Barnyardgrass (barnyardgrass; 1000 g ai/ha, scale 0 to 100): 75; Plant response rating, Ducksalad (ducksalad; 500 g ai/ha, scale 0 to 100): 95; Plant response rating, Ducksalad (ducksalad; 1000 g ai/ha, scale 0 to 100): 100; Plant response rating, Velvetleaf (velvetleaf; [11]): 0; Plant response rating, Velvetleaf (velvetleaf; [12]): 0; Velvetleaf plant response rating (0 to 100 scale, 0 is no effect, 100 is complete control) (velvetleaf; Postemergence, 500 g ai/ha): 0; Plant response rating, Velvetleaf (velvetleaf; [13]): 0; Plant response rating, Morningglory (morningglory; [11]): 0; Plant response rating, Morningglory (morningglory; [12]): 0; Morningglory plant response rating (0 to 100 scale, 0 is no effect, 100 is complete control) (morningglory; Postemergence, 500 g ai/ha): 0; Plant response rating, Morningglory (morningglory; [13]): 0
3 | O=C1NCC(c2ccc(F)c(F)c2)C1C(=O)Nc1cccc(F)c1 (racemic) [Compound 12] | 0 | 0 | 0 |  | 0 | 0 | 0 |  |  |  |  |  |  |  |  | 65 | 0 | 90 | 20 | 0 | Plant response rating, Crabgrass, Large (crabgrass, large; [14]): 80; Crabgrass, Large plant response rating (crabgrass, large; Preemergence, 125 g ai/ha): 90; Plant response rating, Crabgrass, Large (crabgrass, large; [15]): 90; Plant response rating, Velvetleaf (velvetleaf; [14]): 0; Velvetleaf plant response rating (velvetleaf; Preemergence, 125 g ai/ha): 0; Plant response rating, Velvetleaf (velvetleaf; [15]): 0; Plant response rating, Morningglory (morningglory; [14]): 0; Morningglory plant response rating (morningglory; Preemergence, 125 g ai/ha): 0; Plant response rating, Morningglory (morningglory; [15]): 0
4 | O=C1NCC(c2ccc(C(F)(F)F)nc2)C1C(=O)Nc1cccc(F)c1F (racemic) [Compound 263] | 20 | 35 | 45 | 80 | 70 | 90 | 100 | 100 |  |  |  |  |  |  |  |  |  | 90 |  | 60 | Plant response rating, Crabgrass, Large (crabgrass, large; [12]): 80; Plant response rating, Crabgrass, Large (crabgrass, large; [9]): 90; Plant response rating, Crabgrass, Large (crabgrass, large; [13]): 100; Plant response rating, Velvetleaf (velvetleaf; [9]): 50; Plant response rating, Velvetleaf (velvetleaf; [13]): 50; Plant response rating, Morningglory (morningglory; [9]): 0; Plant response rating, Morningglory (morningglory; [13]): 0
5 | O=C1NCC(c2ccc(F)cc2)C1C(=O)Nc1ccccc1F (racemic) [Compound 16] | 0 | 0 | 0 |  | 0 | 40 | 85 |  |  |  |  |  |  |  |  | 15 | 100 | 90 | 0 | 10 | Plant response rating, Crabgrass, Large (crabgrass, large; [14]): 90; Crabgrass, Large plant response rating (crabgrass, large; Preemergence, 125 g ai/ha): 90; Plant response rating, Crabgrass, Large (crabgrass, large; [15]): 90; Plant response rating, Velvetleaf (velvetleaf; [14]): 0; Velvetleaf plant response rating (velvetleaf; Preemergence, 125 g ai/ha): 0; Plant response rating, Velvetleaf (velvetleaf; [15]): 0; Plant response rating, Morningglory (morningglory; [14]): 0; Morningglory plant response rating (morningglory; Preemergence, 125 g ai/ha): 0; Plant response rating, Morningglory (morningglory; [15]): 0
6 | O=C1NCC(c2ccc(C(F)(F)F)cc2)C1C(=O)Nc1ccccc1Cl (stereo not shown) [Compound 233] |  |  |  |  |  |  |  |  |  |  |  |  |  |  |  |  |  |  |  |  | Plant response rating, Galium (galium; [16]): 20; Galium plant response rating (0 to 100 scale, 0 is no effect, 100 is complete control) (galium; 500 g ai/ha): 50; Plant response rating, Blackgrass (blackgrass; [16]): 60; Blackgrass plant response rating (0 to 100 scale, 0 is no effect, 100 is complete control) (blackgrass; 500 g ai/ha): 60; Plant response rating, Ragweed (ragweed; [11]): 40; Plant response rating, Ragweed (ragweed; [12]): 30; Ragweed plant response rating (0 to 100 scale, 0 is no effect, 100 is complete control) (ragweed; Postemergence, 500 g ai/ha): 50; Plant response rating, Ragweed (ragweed; [13]): 50
7 | O=C1NCC(c2ccc(C(F)(F)F)c(F)c2)C1C(=O)Nc1cccc(F)c1F (racemic) [Compound 247] |  |  |  | 25 |  |  |  | 75 |  |  |  |  |  |  |  |  |  | 70 | 0 | 0 | Plant response rating, Crabgrass, Large (crabgrass, large; [12]): 50; Plant response rating, Crabgrass, Large (crabgrass, large; [9]): 90; Plant response rating, Crabgrass, Large (crabgrass, large; [13]): 90; Plant response rating, Barnyardgrass (barnyardgrass; 500 g ai/ha, scale 0 to 100): 35; Plant response rating, Barnyardgrass (barnyardgrass; 1000 g ai/ha, scale 0 to 100): 70; Plant response rating, Barnyardgrass (barnyardgrass; 2000 g ai/ha, scale 0 to 100): 80; Plant response rating, Ducksalad (ducksalad; 500 g ai/ha, scale 0 to 100): 85; Plant response rating, Ducksalad (ducksalad; 1000 g ai/ha, scale 0 to 100): 100; Plant response rating, Ducksalad (ducksalad; 2000 g ai/ha, scale 0 to 100): 100; Plant response rating, Velvetleaf (velvetleaf; [12]): 0; Plant response rating, Velvetleaf (velvetleaf; [9]): 0; Plant response rating, Velvetleaf (velvetleaf; [13]): 0; Plant response rating, Morningglory (morningglory; [12]): 0; Plant response rating, Morningglory (morningglory; [9]): 0; Plant response rating, Morningglory (morningglory; [13]): 0
8 | Cc1cccc(NC(=O)C2C(=O)NCC2c2cccc(C(F)(F)F)c2)c1 (stereo not shown) [Compound 317] | 0 | 0 | 30 | 30 | 0 | 0 | 0 | 0 | 0 | 0 | 0 | 20 | 0 | 0 | 0 |  |  |  |  |  | Ragweed plant response rating (ragweed; [10]): 0
9 | O=C1NCC(c2cccc(Br)c2)C1C(=O)Nc1ccccc1F (stereo not shown) [Compound 307] |  |  |  |  |  |  |  |  | 0 | 0 | 30 | 70 | 0 | 0 | 0 |  |  |  |  |  | Ragweed plant response rating (ragweed; [10]): 0
10 | O=C1NCC(c2cccc(C(F)(F)F)c2)C1C(=O)Nc1ccccc1F (racemic) [Compound 3] | 0 | 20 | 40 |  | 40 | 60 | 85 |  |  |  |  |  |  |  |  | 55 | 90 | 80 | 0 | 30 | Plant response rating, Crabgrass, Large (crabgrass, large; [14]): 70; Crabgrass, Large plant response rating (crabgrass, large; Preemergence, 125 g ai/ha): 90; Plant response rating, Crabgrass, Large (crabgrass, large; [15]): 90; Velvetleaf plant response rating (velvetleaf; Preemergence, 125 g ai/ha): 0; Plant response rating, Velvetleaf (velvetleaf; [15]): 0; Morningglory plant response rating (morningglory; Preemergence, 125 g ai/ha): 0; Plant response rating, Morningglory (morningglory; [15]): 0
